Laboratory results as given in ChEMBL document CHEMBL5150045, “Structure-Guided Design of Halofuginone Derivatives as ATP-Aided Inhibitors Against Bacterial Prolyl-tRNA Synthetase” (J Med Chem, 2022).
In brackets after ≈: the same amount, converted by molar mass. Several values for one entry are separate records, joined by “and”; a condition that tells them apart may be missing. Equal values may be shown once. Activity calls are given as the source filed them. No cut-off for these calls is given here.

Columns and labels:
[1] = (§1) Inhibition of methicillin-resistant Staphylococcus aureus ProRS expressed in Escherichia coli assessed as generation of inorganic monophosphate by pre-transfer editing-based experiment
[2] = tested on: Staphylococcus aureus; assay: Inhibition of methicillin-resistant Staphylococcus aureus ProRS expressed in Escherichia coli assessed as change in melting temperature in presence of AMPPNP at 0.5 mM by fluorescence-based thermal shift assay
[3] = species: Homo sapiens; assay: Inhibition of human ProRS expressed in Escherichia coli assessed as change in melting temperature in presence of AMPPNP at 0.5 mM by fluorescence-based thermal shift assay
[4] = Binding affinity to methicillin-resistant Staphylococcus aureus ProRS expressed in Escherichia coli assessed as dissociation constant by microscale thermophoresis assay
[5] = Binding affinity to methicillin-resistant Staphylococcus aureus ProRS expressed in Escherichia coli assessed as dissociation constant in presence of 0.05 nM ATP by microscale thermophoresis assay
[6] = Binding affinity to methicillin-resistant Staphylococcus aureus ProRS expressed in Escherichia coli assessed as dissociation constant in presence of 0.1 nM ATP by microscale thermophoresis assay
[7] = Binding affinity to methicillin-resistant Staphylococcus aureus ProRS expressed in Escherichia coli assessed as dissociation constant in presence of 0.2 nM ATP by microscale thermophoresis assay
[8] = Binding affinity to methicillin-resistant Staphylococcus aureus ProRS expressed in Escherichia coli assessed as dissociation constant in presence of 0.5 nM ATP by microscale thermophoresis assay
[9] = Binding affinity to methicillin-resistant Staphylococcus aureus ProRS expressed in Escherichia coli assessed as dissociation constant in presence of 1 nM ATP by microscale thermophoresis assay
[10] = Binding affinity to methicillin-resistant Staphylococcus aureus ProRS expressed in Escherichia coli assessed as dissociation constant in presence of 2 nM ATP by microscale thermophoresis assay
[11] = tested on: Escherichia coli; assay: Antibacterial activity against Escherichia coli ATCC25922 assessed as prevention of visible growth by broth microdilution method; assay type: functional
[12] = tested on: Shigella flexneri; assay: Antibacterial activity against Shigella flexneri CMCC51572 assessed as prevention of visible growth by broth microdilution method; assay type: functional
[13] = tested on: Salmonella typhi; assay: Antibacterial activity against Salmonella typhi CMCC50094 assessed as prevention of visible growth by broth microdilution method; assay type: functional, Salmonella enterica subsp. enterica serovar Typhi; details: Salmonella enterica
[14] = tested on: Staphylococcus aureus; assay: Antibacterial activity against methicillin-resistant Staphylococcus aureus 252 assessed as prevention of visible growth by broth microdilution method; assay type: functional
[15] = tested on: Staphylococcus aureus; assay: Antibacterial activity against methicillin-resistant Staphylococcus aureus R3708 assessed as prevention of visible growth by broth microdilution method; assay type: functional
[16] = tested on: Staphylococcus aureus; assay: Antibacterial activity against Staphylococcus aureus ATCC29213 assessed as prevention of visible growth by broth microdilution method; assay type: functional
[17] = tested on: Staphylococcus aureus; assay: Antibacterial activity against Staphylococcus aureus ATCC25923 assessed as prevention of visible growth by broth microdilution method; assay type: functional
[18] = Cytotoxicity against human HepG2 cells; assay type: toxicity, cell-based
[19] = Selectivity index, ratio of CC50 for human HepG2 cells to MIC for methicillin-resistant Staphylococcus aureus 252; assay type: toxicity; details: read-out: Selectivity Index
[20] = tested on: Staphylococcus aureus; assay: Bactericidal activity against methicillin-resistant Staphylococcus aureus 252 assessed as bacterial killing measured after 24 hrs incubation by CLSI method; assay type: functional; details: read-out: MBC99.9
[21] = tested on: Staphylococcus aureus; assay: Ratio of MBC99.9 for methicillin-resistant Staphylococcus aureus 252 to MIC for methicillin-resistant Staphylococcus aureus 252; assay type: functional
[22] = tested on: Escherichia coli; assay: Ratio of MBC99.9 for Escherichia coli ATCC25922 to MIC for Escherichia coli ATCC25922; assay type: functional
[23] = tested on: Staphylococcus aureus; assay: Bacteriostatic effect against methicillin-resistant Staphylococcus aureus 252 assessed as decrease in CFU/ml at 1 to 4 times of MIC measured for 0 to 12 hrs by CLSI based time-kill kinetic assays; assay type: functional, organism-based; details: time 0-12 hrs
[24] = tested on: Escherichia coli; assay: Bacteriostatic effect against Escherichia coli ATCC25922 assessed as decrease in CFU/ml at 1 to 4 times of MIC measured for 0 to 12 hrs by CLSI based time-kill kinetic assays; assay type: functional, organism-based; details: time 0-12 hrs
[25] = tested on: Staphylococcus aureus; assay: Bacteriostatic effect against methicillin-resistant Staphylococcus aureus 252 assessed as decrease in CFU/ml at 4 times of MIC measured for 24 hrs by CLSI based time-kill kinetic assays; assay type: functional
[26] = tested on: Escherichia coli; assay: Bacteriostatic effect against Escherichia coli ATCC25922 assessed as decrease in CFU/ml at 4 times of MIC measured for 24 hrs by CLSI based time-kill kinetic assays; assay type: functional
[27] = tested on: Staphylococcus aureus; assay: Resistance development in methicillin-resistant Staphylococcus aureus 252 assessed as fold increase in resistance after 15 days serial passage upto 256 ug/ml; assay type: functional; details: dose <= 256 µg/ml; time 15 day
[28] = tested on: Escherichia coli; assay: Resistance development in Escherichia coli ATCC25922 assessed as fold increase in resistance after 15 days serial passage upto 256 ug/ml; assay type: functional; details: dose <= 256 µg/ml; time 15 day
[29] = tested on: Staphylococcus aureus; assay: Antibacterial activity against drug-resistance induced methicillin-resistant Staphylococcus aureus 252 assessed as assessed as reversal of drug resistance measured after 10 days in compound free media by broth microdilution method; assay type: functional; details: Staphylococcus aureus, 252, 240 h; time 10 day
[30] = tested on: Escherichia coli; assay: Antibacterial activity against drug-resistance induced Escherichia coli ATCC25922 assessed as assessed as reversal of drug resistance measured after 10 days in compound free media by broth microdilution method; assay type: functional; details: ATCC25922, 240 h, time 10 day
[31] = target: T1, Proline--tRNA ligase (Escherichia coli) (UniProt P16659); assay: Inhibition of Escherichia coli ProRS expressed in Escherichia coli assessed as generation of inorganic monophosphate by pre-transfer editing-based experiment; details: dose 0-100 µM, DDE = dose-dependent effect
T1 sequence (whole entry): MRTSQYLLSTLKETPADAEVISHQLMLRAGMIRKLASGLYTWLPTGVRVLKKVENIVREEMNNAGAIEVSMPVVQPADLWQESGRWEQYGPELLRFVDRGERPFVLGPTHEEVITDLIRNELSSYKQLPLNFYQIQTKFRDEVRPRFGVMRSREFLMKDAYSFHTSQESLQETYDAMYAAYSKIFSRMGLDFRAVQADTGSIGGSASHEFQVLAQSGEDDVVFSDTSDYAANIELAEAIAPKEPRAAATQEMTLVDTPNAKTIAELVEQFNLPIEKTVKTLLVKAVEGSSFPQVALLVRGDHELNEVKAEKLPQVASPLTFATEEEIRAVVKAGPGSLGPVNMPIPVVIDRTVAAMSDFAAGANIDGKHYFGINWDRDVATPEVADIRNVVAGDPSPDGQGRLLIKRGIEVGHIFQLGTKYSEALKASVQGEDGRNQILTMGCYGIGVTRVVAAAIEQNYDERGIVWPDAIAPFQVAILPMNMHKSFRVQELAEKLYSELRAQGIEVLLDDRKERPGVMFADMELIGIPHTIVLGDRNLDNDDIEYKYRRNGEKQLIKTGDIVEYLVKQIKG

[32] = target: T2, Proline--tRNA ligase (Salmonella typhi) (UniProt Q8XEY9); assay: Inhibition of Salmonella typhi ProRS expressed in Escherichia coli assessed as generation of inorganic monophosphate by pre-transfer editing-based experiment; details: Salmonella enterica subsp. enterica serovar Typhi; dose 0-100 µM; DDE = dose-dependent effect
T2 sequence (whole entry): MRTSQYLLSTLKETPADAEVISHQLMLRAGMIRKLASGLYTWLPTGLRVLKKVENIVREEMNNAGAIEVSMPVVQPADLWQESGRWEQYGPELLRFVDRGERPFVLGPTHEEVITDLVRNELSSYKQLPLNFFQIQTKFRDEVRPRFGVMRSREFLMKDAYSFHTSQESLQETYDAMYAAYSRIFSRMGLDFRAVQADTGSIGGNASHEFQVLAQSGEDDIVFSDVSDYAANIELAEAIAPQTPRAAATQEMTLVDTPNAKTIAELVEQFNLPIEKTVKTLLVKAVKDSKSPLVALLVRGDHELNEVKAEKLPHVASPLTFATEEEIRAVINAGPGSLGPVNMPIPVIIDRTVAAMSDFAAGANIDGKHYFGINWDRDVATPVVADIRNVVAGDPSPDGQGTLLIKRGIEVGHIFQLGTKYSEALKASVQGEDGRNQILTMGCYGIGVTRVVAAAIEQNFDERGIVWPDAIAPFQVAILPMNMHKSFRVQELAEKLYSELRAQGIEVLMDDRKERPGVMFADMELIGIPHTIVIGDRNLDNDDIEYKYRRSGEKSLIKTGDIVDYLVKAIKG

[33] = tested on: Staphylococcus aureus; assay: as §1; details: dose 0-100 µM, DDE = dose-dependent effect
[34] = species: Homo sapiens; assay: Inhibition of human ProRS expressed in Escherichia coli assessed as generation of inorganic monophosphate by pre-transfer editing-based experiment; details: dose 0-100 µM, DDE = dose-dependent effect
[35] = tested on: Saccharomyces cerevisiae; assay: Inhibition of Saccharomyces cerevisiae ProRS expressed in Escherichia coli assessed as generation of inorganic monophosphate at 0 to 100 uM by pre-transfer editing-based experiment; details: dose 0-100 µM, DDE = dose-dependent effect
[36] = target: T1, Proline--tRNA ligase (Escherichia coli); assay: Inhibition of Escherichia coil ProRS expressed in Escherichia coli assessed as change in melting temperature in presence of AMPPNP at 0.5 mM by fluorescence-based thermal shift assay
[37] = target: T2, Proline--tRNA ligase (Salmonella typhi); assay: Inhibition of Salmonella typhi ProRS expressed in Escherichia coli assessed as change in melting temperature in presence of AMPPNP at 0.5 mM by fluorescence-based thermal shift assay; details: Salmonella enterica subsp. enterica serovar Typhi
[38] = tested on: Staphylococcus aureus; assay: Bacteriostatic effect against methicillin-resistant Staphylococcus aureus 252 assessed as decrease in CFU/ml at MIC measured for 24 hrs by CLSI based time-kill kinetic assays; assay type: functional

Row | SMILES | IC50 [1] | ΔTm [2] | ΔTm [3] | Kd [4] | Kd [5] | Kd [6] | Kd [7] | Kd [8] | Kd [9] | Kd [10] | MIC [11] | MIC [12] | MIC [13] | MIC [14] | MIC [15] | MIC [16] | MIC [17] | CC50 [18] | fold change (FC) [27] | fold change (FC) [28] | also measured
1 | O=C(C[C@@H]1CCCCN1)Cn1cnc2cc(Cl)c(F)cc2c1=O | 0.18 µM | 10.2 °C | 20.4 °C | 376 µM | 276 µM | 205 µM | 8.33 µM | 0.691 µM | 0.0675 µM | 0.0303 µM | 1 µg/mL (≈ 2.96 µM) | 1 µg/mL (≈ 2.96 µM) | 4 µg/mL (≈ 11.8 µM) | 1 µg/mL (≈ 2.96 µM) | 1 µg/mL (≈ 2.96 µM) | 2 µg/mL (≈ 5.92 µM) | 4 µg/mL (≈ 11.8 µM) | 0.076 µM | 15 | 16 | selectivity ratio [19]: 3600; MBC [20]: 8 µg/mL (≈ 23.7 µM); Ratio [21]: 8; Ratio [22]: 16; Activity [23]: Active; Activity [24]: Active; Activity [25]: 2.1 log10CFU/ml; Activity [26]: 1.6 log10CFU/ml; MIC [29]: 4 µg/mL; MIC [30]: 8 µg/mL
2 | O=C(CC1NCCCC1O)Cn1cnc2cc(Br)c(Cl)cc2c1=O (stereo unspecified) [HALOFUGINONE] | 0.66 µM | 6.9 °C and 6 °C | 13.6 °C and 17.4 °C | 1020 µM | 781 µM | 628 µM | 11.6 µM | 5.51 µM | 0.423 µM | 0.216 µM | 64 µg/mL (≈ 154 µM) | 64 µg/mL (≈ 154 µM) | > 64 µg/mL | 64 µg/mL (≈ 154 µM) | 64 µg/mL (≈ 154 µM) | > 64 µg/mL | > 64 µg/mL | 4.32 µM |  |  | inhibition [31]: Dde; inhibition [32]: Dde; inhibition [33]: Dde; inhibition [34]: Dde; inhibition [35]: Dde; ΔTm [36]: 17.4 °C; ΔTm [37]: 12.5 °C
3 | O=C(O)c1cn(C2CC2)c2cc(N3CCNCC3)c(F)cc2c1=O [CIPROFLOXACIN] |  |  |  |  |  |  |  |  |  |  |  | 2 µg/mL (≈ 6.04 µM) |  |  |  |  |  |  |  | 16 | 
4 | C[C@H]1COc2c(N3CCN(C)CC3)c(F)cc3c(=O)c(C(=O)O)cn1c23.C[C@H]1COc2c(N3CCN(C)CC3)c(F)cc3c(=O)c(C(=O)O)cn1c23.O [LEVOFLOXACIN] |  |  |  |  |  |  |  |  |  |  |  |  |  |  |  |  |  |  | 64 |  | 
5 | C/C(=C\C(=O)OCCCCCCCCC(=O)O)C[C@@H]1OC[C@H](C[C@@H]2O[C@H]2[C@@H](C)[C@H](C)O)[C@@H](O)[C@H]1O [MUPIROCIN] |  |  |  |  |  |  |  |  |  |  | 32 µg/mL (≈ 63.9 µM) | 8 µg/mL (≈ 16 µM) | 32 µg/mL (≈ 63.9 µM) | 0.13 µg/mL (≈ 0.26 µM) | 0.13 µg/mL (≈ 0.26 µM) | 0.13 µg/mL (≈ 0.26 µM) | 0.13 µg/mL (≈ 0.26 µM) |  |  |  | Activity [38]: 1.2 log10CFU/ml
